# In BindingDB's records for doi:10.1016/j.bioorg.2015.04.003 (Comsats Institute of Information Technology, 2015):
# Target: T1, Thymidine phosphorylase (Escherichia coli O157:H7, UniProt Q8XB35)
# T1 sequence (Q8XB35 whole entry): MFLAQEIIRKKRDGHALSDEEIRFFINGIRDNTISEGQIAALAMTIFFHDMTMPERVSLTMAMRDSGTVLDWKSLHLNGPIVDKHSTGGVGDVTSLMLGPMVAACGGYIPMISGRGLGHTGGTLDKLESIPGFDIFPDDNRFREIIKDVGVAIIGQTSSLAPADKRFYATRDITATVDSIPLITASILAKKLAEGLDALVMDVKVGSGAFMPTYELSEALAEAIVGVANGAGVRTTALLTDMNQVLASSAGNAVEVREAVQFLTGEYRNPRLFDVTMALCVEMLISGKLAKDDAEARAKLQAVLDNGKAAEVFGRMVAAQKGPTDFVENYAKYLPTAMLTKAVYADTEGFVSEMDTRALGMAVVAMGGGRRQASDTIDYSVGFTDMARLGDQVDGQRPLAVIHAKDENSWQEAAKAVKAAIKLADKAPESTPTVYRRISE
# Experiment: Thymidine Phosphorylase Inhibition Assay
# Conditions: pH 7.4
# Procedure: Briefly, a total reaction mixture of 200 µl contained 145 µl of potassium phosphate buffer (pH 7.4), 30 µl of enzyme at concentration 0.05 and 0.002 U, respectively, were incubated with 5 µl of test materials for 10 min at 25 °C in microplate reader. After incubation, pre read at 290 nm was taken to deduce the absorbance of substrate molecules. Substrate (20 µl, 1.5 mM) was dissolved in potassium phosphate buffer and was immediately added to plate and continuously read after 10, 20, and 30 min in micro-plate reader. All assays were performed in triplicate
row,Structure (SMILES),IC50 [µM]
1,"Oc1ccc(-c2nnc(S)o2)cc1 [5(4'-Hydroxyphenyl)-1,3,4-oxadiazole-2(3H)-thione (6)]",38.2
2,"Nc1ccccc1-c1n[nH]c(=S)o1 [5-(2'-Aminophenyl)-1,3,4-oxadiazole-2(3H)-thione (3)]",74.3
3,"Oc1ccccc1-c1nnc(S)o1 [5-(2'-Hydroxyphenyl)-2,3-dihydro-1,3,4-oxadiazole-2-thione (2)]",68.4
4,"COc1cc(-c2n[nH]c(=S)o2)cc(OC)c1OC [5-(3',4',5'-Trimethoxyphenyl)-1,3,4-oxadiazole-2(3H)-thione (8)]",63.4
5,"Sc1nnc(-c2cccc(Cl)c2)o1 [5-(3'-Chlorophenyl)-1,3,4-oxadiazole-2(3H)-thione (10)]",258
6,"Cc1cccc(-c2nnc(S)o2)c1 [5-(3'-Methylphenyl)-1,3,4-oxadiazole-2(3H)-thione (4)]",91.8
7,"S=c1[nH]nc(-c2ccc(Br)cc2)o1 [5-(4'-Bromophenyl)-1,3,4-oxadiazole-2(3H)-thione (12)]",64
8,"S=c1[nH]nc(-c2ccc(Cl)cc2)o1 [5-(4'-Chlorophenyl)-1,3,4-oxadiazole-2(3H)-thione (11)]",64
9,"COc1ccc(-c2n[nH]c(=S)o2)cc1 [5-(4'-Methoxyphenyl)-1,3,4-oxadiazole-2(3H)-thione (7)]",72.4
